{
  "source": "patent US20150057465A1",
  "about": "“CONTROL OF GROWTH-INDUCTION-PRODUCTION PHASES” (OPX BIOTECHNOLOGIES, INC., priority 2013, published 2015)",
  "molecules": {"B1": {"name": "rhtA: chemical exporter from E. coli characterized for homoserine transport; mutant rhtA(P2S), SEQ ID NO. 30, 31, overexpressed (protein)", "chain": "MSGSLRKMPVWLPIVILLVAMASIQGGASLAKSLFPLVGAPGVTALRLALGTLILIAFFKPWRLRFAKEQRLPLLFYGVSLGGMNYLFYLSIQTVPLGIAVALEFTGPLAVALFSSRRPVDFVWVVLAVLGLWFLLPLGQDVSHVDLTGCALALGAGACWAIYILSGQRAGAEHGPATVAIGSLIAALIFVPIGALQAGEALWHWSVIPLGLAVAILSTALPYSLEMIALTRLPTRTFGTLMSMEPALAAVSGMIFLGETLTPIQLLALGAIIAASMGSTLTVRKESKIKELDIN", "notes": "chemical exporter from E. coli characterized for homoserine transport; 30, 31, overexpressed"}},
  "key": {"[1]": {"target": "E. coli ACCase (Escherichia coli, UniProt P0A9Q5+P0ABD5+P0ABD8+P24182)", "sequence (P0A9Q5 whole entry)": "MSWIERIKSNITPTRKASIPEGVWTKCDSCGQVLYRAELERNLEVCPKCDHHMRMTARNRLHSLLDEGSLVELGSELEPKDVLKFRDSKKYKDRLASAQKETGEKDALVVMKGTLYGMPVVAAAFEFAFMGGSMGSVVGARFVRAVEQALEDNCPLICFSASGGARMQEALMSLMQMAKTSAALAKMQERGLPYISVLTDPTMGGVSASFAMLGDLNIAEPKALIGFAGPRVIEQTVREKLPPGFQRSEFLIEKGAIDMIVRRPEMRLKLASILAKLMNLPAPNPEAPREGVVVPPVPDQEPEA", "sequence (P0ABD5 whole entry)": "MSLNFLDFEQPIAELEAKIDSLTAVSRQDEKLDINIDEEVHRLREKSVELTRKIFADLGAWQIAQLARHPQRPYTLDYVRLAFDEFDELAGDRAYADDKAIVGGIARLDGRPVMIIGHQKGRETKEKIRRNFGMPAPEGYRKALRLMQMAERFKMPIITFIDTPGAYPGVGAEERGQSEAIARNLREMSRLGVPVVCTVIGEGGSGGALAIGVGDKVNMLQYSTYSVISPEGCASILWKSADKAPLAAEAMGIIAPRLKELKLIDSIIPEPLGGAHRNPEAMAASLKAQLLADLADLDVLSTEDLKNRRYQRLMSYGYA", "conditions": "for effect of salt on ACCase activity: E. coli ACCase, dose-dependent studies, FIG. 4; for decrease of the activity of the ACCase enzyme: relative to control (FIG. 4)", "method": "Levels of greater than 0.66M (60 g/L) are expected to be present for commercially viable commercial production of 3-HP.\nEach gene was amplified by PCRs with Pfu Ultra II HS using the manufacturer's instructions, and the PCR products were purified using the Zymo PCR Cleanup kit. Concentrations of products were measured using the Nanodrop spectophotometer. The Gibson Assembly kit (NEB) was used to construct plasmids expressing the ACCase subunit genes as directed by the manufacturer. The effect of NH4-3-HP and NH4Cl on H. elongata ACCase was tested and compared to the E. coli ACCase."}, "[2]": {"system": "H. elongata ACCase", "assay": "Salt inhibition of H. elongata ACCase activity", "format": "biochemical, Halomonas elongata", "conditions": "ACCase from the halophile H. elongata, compared to E. coli ACCase, FIG. 4", "method": "Accordingly, the genes encoding the accA, accB, accC, accD of H. elongata described in Table 1 were synthesized for expression in E. coli using codons optimized for this organism and supplied individually on pUC57 plasmids without promoters. Synthetic operons comprising the subunits were assembled using the Gibson assembly method.\nConcentrations of products were measured using the Nanodrop spectophotometer."}, "[3]": {"system": "E. coli strains", "assay": "Growth inhibition of E. coli strains grown in the presence of 3-HP", "format": "cell-based"}, "[4]": {"system": "3HP titer", "assay": "1 L fermentation with overexpression of rhtA exporter, 3HP titer", "format": "cell-based, E. coli", "conditions": "compared to control plasmid without rhtA, FIG. 7", "method": "A known chemical exporter from E. coli that has been previously characterized for homoserine transport, rhtA, was evaluated for increased production of 3-HP. A mutant version of the exporter, rhtA(P2S) (SEQ ID NO. 30 nucleic acid, SEQ ID NO. 31 protein) was synthesized behind the PtpiA promoter and inserted into the pTRC-PyibD-MCR plasmid behind a terminator using the Gibson Assemply kit (NEB) according to manufacturer's instructions. The effects of overexpression of rhtA were evaluated in 1 L fermentation compared to the control plasmid without rhtA. […] Construction of plasmids expressing another putative transporter, ydcO (SEQ ID NO. 32 nucleic acid, SEQ ID NO. 33 protein) is carried out in the same manner."}, "[5]": {"conditions": "salts of 3-HP levels near 0.66M"}},
  "note": "Entries after “also recorded” stand apart in the source; their conditions may differ. Where two headings read alike, the source gives them in different places.",
  "data": [
    {"molecule": "Cl.N", "note": "[NH4Cl]", "values": [
      {"measurement": "effect of salt on ACCase activity", "setting": "[1]", "value": "significantly inhibited"},
      {"measurement": "decrease of the activity of the ACCase enzyme", "setting": "[1]; salt levels near 0.44M", "value": "approximately 80%"},
      {"measurement": "effect of salt on ACCase activity", "setting": "[2]", "value": "less affected"}
    ]},
    {"molecule": "O=C(O)CCO", "note": "[3-HP, 3-hydroxypropionic acid]", "values": [
      {"measurement": "3-HP level at which growth inhibition was demonstrated", "setting": "[3]", "value": "≥ 20", "unit": "g/L"}
    ]},
    {"molecule": "O=C([O-])CCO.[Na+]", "note": "[Na-3-HP]", "values": [
      {"measurement": "effect of salt on ACCase activity", "setting": "[1]", "value": "inhibitory effects"},
      {"measurement": "decrease of the activity of the ACCase enzyme", "setting": "[1]; [5]", "value": "approximately 80%"}
    ]},
    {"molecule": "N.O=C(O)CCO", "note": "[NH4-3-HP]", "values": [
      {"measurement": "effect of salt on ACCase activity", "setting": "[1]", "value": "significantly inhibited"},
      {"measurement": "decrease of the activity of the ACCase enzyme", "setting": "[1]; [5]", "value": "approximately 80%"},
      {"measurement": "effect of salt on ACCase activity", "setting": "[2]", "value": "less affected"}
    ]},
    {"molecule": "[Cl-].[Na+]", "note": "[NaCl]", "values": [
      {"measurement": "effect of salt on ACCase activity", "setting": "[1]", "value": "inhibitory effects"},
      {"measurement": "decrease of the activity of the ACCase enzyme", "setting": "[1]; salt levels near 0.44M", "value": "approximately 80%"}
    ]},
    {"molecule": "B1", "values": [
      {"measurement": "3HP titer", "setting": "[4]", "value": "improved production of 3-HP; also recorded: significant improvement in 3HP titer"}
    ]}
  ]
}
